One data set addresses T1, human cathepsin L (Homo sapiens, UniProt P07711).
T1 construct: purchased R&D Systems
As to the kind of experiment: cathepsin L assay. As to conditions: 10 pM human cathepsin L, Z-FR-AMC 2 μM, class symbols. The class given is biochemical. In outline: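 Reactions began by adding 2 μM (final) Z-FR-AMC substrate to 10 pM human cathepsin L that had been preincubated 30 min with inhibitor. Kinetic AMC fluorescence at 355/460 nm over 30 min at 2-min intervals; four-parameter fitting gave IC50 values.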

The target in the next data set is 3CLpro (Severe acute respiratory syndrome coronavirus 2, UniProt P0DTD1). As to the kind of experiment: SARS-CoV-2 3CLpro protease assay (duplex, SAMDI-MS). The class given is biochemical. Also on record: For the duplex assay, 3CLpro and HRV3C was added. As to conditions: 3CLpro, 30 mins preincubation, class symbols; read-out: SARS-Cov-2 IC50.
Data set [1] in a line: in vitro. As to conditions: human.
The subject of data set [2] is SARS-CoV-2-GHB-03021/2020. Briefly: microbe, parasite or virus in culture. The class given is cell-based. As to conditions: Severe acute respiratory syndrome coronavirus 2, Vero C1008, 96 h; read-out: VeroE6 + CP (EC50).
Data set [3] deals with human beta-coronavirus OC43. As to the kind of experiment: microbe, parasite or virus in culture. The format is cell-based. To be noted: Betacoronavirus 1, OC43, HeLa, 144 h, OC43 in HeLa cells, 6 days at 33° C., read-out: EC50.
The next data set has as its target HRV3C (Human rhinovirus 14, UniProt P03303). As to the kind of experiment: HRV3C protease assay (duplex, SAMDI-MS). As to conditions: 30 mins preincubation. The format is biochemical, HRV. In outline:
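Compounds are preincubated 30 min with the protease pair before substrate addition, and cleavage proceeds 30 min at room temperature. Product peptides are measured by SAMDI-MS relative to internal standards, with IC50 obtained from a four-parameter fit.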

Data set [4] concerns SARS-CoV-2-GHB-03021/2020. Briefly: SARS-CoV-2 Infection Model in Huh7 Cells. The format is cell-based. To be noted: Severe acute respiratory syndrome coronavirus 2, Huh-7, 96 h, SARS-CoV-2, day 4 p.i., MTS.
Data set [5] in a line: Cytotoxicity plates without OC43 virus (cell-titer-glo). As to conditions: human; HeLa cells without OC43 virus, class symbols. The class given is cell-based, human. In outline: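 Run as a virus-free counterpart of the OC43 cytopathic-effect assay. Attached HeLa cells received compound dilutions in EMEM with 2% FBS and were kept 6 days at 33 °C. Cell viability was then measured by CellTiter-Glo luminescence.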

Data set [6] is described as follows: in vitro. To be noted: African green monkey, VeroE6 + CP (CC50), Vero E6-eGFP cells with CP-100356, absence of virus, MTS.
Setting [7] is: HRV3C, class symbols, read-out: HRV IC50.
The mark [8] stands for this setting: HRV3C, bound, read-out: HRV IC50.

The values that follow come from patent US11952365B2, “Anti-viral compounds” (Aligos Therapeutics, Inc., priority 2020, dated 2024).

Like-named read-outs stand apart in the source and are kept apart here. Bounds are passed on as bounds.

Consider `O=C(NCc1ccccc1)C(=O)[C@H](C[C@@H]1CCNC1=O)NC(=O)[C@@H]1C[C@@H](C2CCCCC2)CN1C(=O)c1cc2ccccc2[nH]1` [Compound 20], for which the results for the IC50 on human cathepsin L, at 3CLpro and on HRV3C (setting [7]) were no less than 10 µM, 0.2 to 2 µM and 0.2 to 2 µM, respectively. In “in vitro [1]”, this compound showed a CC50 of 1 to 10 µM. The values for the EC50 in data set [2], in data set [3] (class symbols) and in data set [4] (numeric bounds) were 1 to 10 µM, less than 0.1 µM and greater than 100 µM, respectively. This compound had a CC50 at 6 days in data set [5] greater than 10 µM.

On to `COc1cccc2[nH]c(C(=O)N3CCC4(CC4)C[C@H]3C(=O)N[C@@H](C[C@@H]3CCNC3=O)C(=O)C(=O)NC3CC3)cc12` [Compound 179], for which the CC50 is greater than 50 µM in the data set “in vitro [6]” (numeric bounds) and greater than 10 µM in “in vitro [1]”. Besides, the IC50 (commonly the concentration that gives 50% inhibition) was 1 to 10 µM against human cathepsin L, less than 0.02 µM at 3CLpro and 0.2 to 2 µM at HRV3C (setting [7]). Moreover, the EC50 – broadly, the concentration that produces a half-maximal response – was 10 to 100 µM in [2] and greater than 10 µM in data set [4] (numeric bounds).

In the case of `O=C(NC1CC1)C(=O)[C@H](C[C@@H]1CCNC1=O)NC(=O)[C@@H]1CC2(CCN1C(=O)c1cc3c(C4CC4)cccc3[nH]1)CC2` [Compound 180], the CC50 in “in vitro [6]” (numeric bounds) is greater than 50 µM; in the data set “in vitro [1]” it was greater than 10 µM. Besides, the results for the IC50 against human cathepsin L, at 3CLpro and at HRV3C (setting [7]) were 1 to 10 µM, 0.02 to 0.2 µM and 0.2 to 2 µM, respectively. Moreover, the EC50 in [2] and in data set [4] (class symbols) was 1 to 10 µM throughout.

In the case of `CC(C)CCCNC(=O)C(=O)[C@H](C[C@@H]1CCNC1=O)NC(=O)[C@@H]1[C@H]2CCC[C@H]2CN1C(=O)c1cc2c(Cl)cc(Cl)cc2[nH]1` [Compound 183], the CC50 in “in vitro [6]” (class symbols) and in the data set “in vitro [1]” was 1 to 10 µM throughout. Further, the IC50 at human cathepsin L is 1 to 10 µM; on 3CLpro, 0.02 to 0.2 µM; on HRV3C (setting [8]) it was greater than 10 µM. The EC50 in data set [2] is less than 1 µM; in data set [4] (class symbols), 1 to 10 µM.

`COc1ccnc2[nH]c(C(=O)N3C[C@@H]4CCC[C@@H]4[C@H]3C(=O)N[C@@H](C[C@@H]3CCNC3=O)C(=O)CO)cc12` [Compound 67, (1S,3aR,6aS)—N-[(2S)-4-hydroxy-3-oxo-1-[(3S)-2-oxopyrrolidin-3-yl]butan-2-yl]-2-{4-methoxy-1H-pyrrolo[2,3-b]pyridine-2-carbonyl}-hexahydro-1H-cyclopenta[c]pyrrole-1-carboxamide]: the IC50 was no less than 10 µM at human cathepsin L, 0.02 to 0.2 µM on 3CLpro and greater than 10 µM at HRV3C (setting [8]). In the data set “in vitro [1]”, this compound yielded a CC50 greater than 100 µM. For the same compound, the EC50 in [3] (class symbols) fell in the range of 1 to 10 µM; in [4] (class symbols), 10 to 100 µM. For the same compound, the CC50 at 6 days in data set [5] was greater than 10 µM.

With `COc1cccc2[nH]c(C(=O)N3C[C@@H]4CCC[C@@H]4[C@H]3C(=O)N[C@@H](CN3C[C@H](O)CC3=O)C(=O)C(=O)NC3CC3)cc12` [Compound 178], the CC50 is greater than 50 µM in the data set “in vitro [6]” (numeric bounds) and greater than 10 µM in the data set “in vitro [1]”. Further, the IC50 is no less than 10 µM against human cathepsin L, 2 to 20 µM at 3CLpro and greater than 10 µM at HRV3C (setting [8]). The results for the EC50 in [2] and in data set [4] (numeric bounds) were greater than 50 µM and greater than 10 µM, respectively.

For `O=C(NCc1ccccc1)C(=O)C(C[C@@H]1CCCNC1=O)NC(=O)[C@@H]1[C@H]2CCC[C@H]2CN1C(=O)c1cc2ccccc2[nH]1` (stereo partly drawn) [Compound 17, (1S,3aR,6aS)—N-(4-(benzylamino)-3,4-dioxo-1-((S)-2-oxopiperidin-3-yl)butan-2-yl)-2-(1H-indole-2-carbonyl)octahydrocyclopenta[c]pyrrole-1-carboxamide], the IC50 against human cathepsin L is 1 to 10 µM; at 3CLpro it was 0.02 to 0.2 µM; at HRV3C (setting [7]), 2 to 20 µM. In “in vitro [1]”, this compound came in with a CC50 greater than 10 µM. For the same compound, the concentration for a half-maximal effect (EC50) in [3] (class symbols) was in the range of 0.1 to 1 µM; in [4] (class symbols), 1 to 10 µM. In [5], this compound yielded a CC50 at 6 days greater than 10 µM.

Consider `COc1cccc2[nH]c(C(=O)N3C[C@@H]4CCC[C@@H]4[C@H]3C(=O)NC(C[C@@H]3CCNC3=O)C(=O)C(N)=O)cc12` (stereo partly drawn) [Compound 56, 3-{[(1S,3aR,6aS)-2-(4-methoxy-1H-indole-2-carbonyl)-hexahydro-1H-cyclopenta[c]pyrrol-1-yl]formamido}-2-oxo-4-[(3S)-2-oxopyrrolidin-3-yl]butanamide], for which the IC50 against human cathepsin L is no less than 10 µM; on 3CLpro, 0.02 to 0.2 µM; at HRV3C (setting [7]) it was 0.2 to 2 µM. Further, the CC50 in “in vitro [1]” is greater than 100 µM. The EC50 in [3] (class symbols) and in [4] (class symbols) was 10 to 100 µM throughout. Further, the CC50 at 6 days in data set [5] was greater than 10 µM.

On to `COc1cccc2[nH]c(C(=O)N3Cc4ccccc4C[C@H]3C(=O)N[C@@H](C[C@@H]3CCNC3=O)C(=O)C(=O)NC3CC3)cc12` [Compound 97, (S)—N—((S)-4-(cyclopropylamino)-3,4-dioxo-1-((S)-2-oxopyrrolidin-3-yl)butan-2-yl)-2-(4-methoxy-1H-indole-2-carbonyl)-1,2,3,4-tetrahydroisoquinoline-3-carboxamide], for which the IC50 was no less than 10 µM against human cathepsin L; 0.2 to 2 µM at 3CLpro; 0.02 to 0.2 µM against HRV3C (HRV IC50, HRV3C, class symbols). The CC50 in “in vitro [1]” was greater than 100 µM. For the same compound, the EC50 was greater than 10 µM in data set [3] (bound) and greater than 100 µM in data set [4] (numeric bounds). For the same compound, the CC50 at 6 days in [5] was greater than 10 µM.

With `N#Cc1cccc2[nH]c(C(=O)N3C[C@@H]4CCC[C@@H]4[C@H]3C(=O)NC(C[C@@H]3CCNC3=O)C(=O)COCc3ccccc3)cc12` (stereo partly drawn) [Compound 66A, (1S,3aR,6aS)—N-[4-(benzyloxy)-3-oxo-1-[(3S)-2-oxopyrrolidin-3-yl]butan-2-yl]-2-(4-cyano-1H-indole-2-carbonyl)-hexahydro-1H-cyclopenta[c]pyrrole-1-carboxamide], the IC50 was no less than 10 µM against human cathepsin L, 0.2 to 2 µM on 3CLpro and greater than 10 µM at HRV3C (setting [8]). In addition, the CC50 in “in vitro [1]” is greater than 10 µM. For the same compound, the EC50 fell in the range of 0.1 to 1 µM in data set [3] (class symbols) and 1 to 10 µM in data set [4] (class symbols). In [5], this compound returned a CC50 at 6 days greater than 10 µM.

Take `COCC(=O)[C@H](C[C@@H]1CCNC1=O)NC(=O)[C@@H]1[C@H]2CCC[C@H]2CN1C(=O)c1cc2c(OC)cccc2[nH]1` [Compound 71, (1S,3aR,6aS)-2-(4-methoxy-1H-indole-2-carbonyl)-N-[(2S)-4-methoxy-3-oxo-1-[(3S)-2-oxopyrrolidin-3-yl]butan-2-yl]-hexahydro-1H-cyclopenta[c]pyrrole-1-carboxamide]: the IC50 is no less than 10 µM at human cathepsin L; 0.2 to 2 µM at 3CLpro; greater than 10 µM against HRV3C (HRV IC50, HRV3C, bound). This compound also returned a CC50 in “in vitro [1]” greater than 100 µM. The EC50 was in the range of 0.1 to 1 µM in [3] (class symbols) and 1 to 10 µM in data set [4] (class symbols). In addition, in data set [5], the CC50 at 6 days is greater than 10 µM.

Take `N#Cc1cccc2[nH]c(C(=O)N3C[C@@H]4CCC[C@@H]4[C@H]3C(=O)N[C@@H](C[C@@H]3CCNC3=O)C(=O)CO)cc12` [Compound 66, (1S,3aR,6aS)-2-(4-cyano-1H-indole-2-carbonyl)-N-[(2S)-4-hydroxy-3-oxo-1-[(3S)-2-oxopyrrolidin-3-yl]butan-2-yl]-hexahydro-1H-cyclopenta[c]pyrrole-1-carboxamide]: the IC50 against human cathepsin L is no less than 10 µM; at 3CLpro, 0.02 to 0.2 µM; on HRV3C (setting [8]) it was greater than 10 µM. The CC50 in the data set “in vitro [1]” was greater than 100 µM. The EC50 in data set [3] (class symbols) is 1 to 10 µM; in data set [4] (class symbols), 10 to 100 µM. The compound also registered a CC50 at 6 days in data set [5] greater than 10 µM.

For the compound `COc1cccc2[nH]c(C(=O)N3C[C@@H]4CCC[C@@H]4[C@H]3C(=O)N[C@@H](C[C@@H]3CCNC3=O)C(=O)CO)nc12` [Compound 37], the IC50 was no less than 10 µM at human cathepsin L, 0.02 to 0.2 µM on 3CLpro and 20 to 100 µM at HRV3C (setting [7]). This compound yielded a CC50 in “in vitro [1]” greater than 100 µM. The EC50 in data set [3] (class symbols) and in [4] (class symbols) was 1 to 10 µM in each case. Moreover, in [5], the CC50 at 6 days was greater than 10 µM.
